{"source": "patent US20120029031A1", "about": "“METADOXINE FOR USE AS INHIBITOR OF HEPATIC FIBROSIS” (LABORATORI BALDACCI SPA, priority 2009, published 2012)", "test_system": "immortalized human fibroblasts", "assay": "Proliferation of immortalized human fibroblasts (MTT, Mosmann method)", "format": "cell-based", "conditions": "MTT O.D. as percent of control; tested range 10^−11M to 10^−3M; measured up to 120 h, treatments repeated every 24 h", "method": "The methods used allow evaluating the effect of substances provided with potential antifibrotic activity on the proliferation of fibroblasts.\nA line of immortalized human fibroblasts was used, maintained in a culture in a suitable medium.\nIn order to carry out the proliferation experiments, the fibroblasts were detached from the flask by means of trypsinization, counted and distributed on 96-well flat-bottom plates at the concentration of 2000 cells/100 μl medium.\nScalar concentrations of metadoxine were added (range of concentration from 10^−11M to 10^−3M).\nThe plates were maintained in CO2 incubator at 37° C. The proliferation of the cells was measured at 24 h intervals up to 120 h by using the Mosmann method (10), based on the spectrophotometer determination of the conversion of MTT [3-(4,5 dimethylthiazole-2-yl)-2-5 diphenyltetrazolium bromide] to its blue reduction product, formazan, by mitochondrial enzymes of the metabolically active cells.\nThe optical densities (O.D.) were determined by means of the Titertek Multiscan (Flow) spectrophotometer with 540 nm filter.\nThe O.D.s of the samples are expressed as percentages of the samples with respect to the control group."}
{"smiles": "Cc1ncc(CO)c(CO)c1O.O=C1CC[C@@H](C(=O)O)N1", "note": "[Metadoxine, Pyridoxol L-2-pyrrolidone-5-carboxylate]", "values": [{"measurement": "concentration at which metadoxine inhibits the fibrogenic activity / growth of fibroblasts", "result": "10^−5 M"}]}
